Laboratory results: ChEMBL document CHEMBL1201862, “PubChem BioAssay data set” (2004)
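Each compound was tested at five concentrations against cells in 96-well plates for 48 hours. Abbreviation: GI50, concentration required for 50% inhibition of growth.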 Activity calls are given as the source filed them. Cut-off read from the data, not from the text of the source: active = GI50 up to about 1.1 µM and inactive = higher.

How the values were obtained:
Test in all cases: NCI anticancer screen, dose series, 48 h
UO-31 = tested on: UO-31
SK-MEL-5 = tested on: SK-MEL-5
SR = tested on: SR
HCT-116 = tested on: HCT-116
BT-549 = tested on: BT-549
SK-MEL-28 = tested on: SK-MEL-28
SNB-75 = tested on: SNB-75
K562 = tested on: K562
HT-29 = tested on: HT-29
Hs-578T = tested on: Hs-578T
IGROV-1 = tested on: IGROV-1
MDA-N = tested on: MDA-N
RPMI-8226 = tested on: RPMI-8226
HCC 2998 = tested on: HCC 2998
CAKI-1 = tested on: CAKI-1
NCI-H460 = tested on: NCI-H460
RXF 393 = tested on: RXF 393
SF-539 = tested on: SF-539
MCF7 = tested on: MCF7
MDA-MB-231 = tested on: MDA-MB-231

Compound | GI50 (UO-31) | GI50 (SK-MEL-5) | GI50 (SR) | GI50 (HCT-116) | GI50 (BT-549) | GI50 (SK-MEL-28) | GI50 (SNB-75) | GI50 (K562) | GI50 (HT-29) | GI50 (Hs-578T) | GI50 (IGROV-1) | GI50 (MDA-N) | GI50 (RPMI-8226) | GI50 (HCC 2998) | GI50 (CAKI-1) | GI50 (NCI-H460) | GI50 (RXF 393) | GI50 (SF-539) | GI50 (MCF7) | GI50 (MDA-MB-231)
CN(C)CCN(C)c1ccc2c(=O)n(CCN(C)C)c(=O)n3c4ccccc4c(=O)c1c23 | 0.516 µM (active) | 0.48 µM (active) | < 0.01 µM (active) | 0.194 µM (active) | 3.3 µM (inactive) | 2.12 µM (inactive) | 0.316 µM (active) | 0.14 µM (active) | 0.397 µM (active) | 2.12 µM (inactive) | 0.426 µM (active) | 0.859 µM (active) | 0.179 µM (active) | 0.454 µM (active) | < 0.026 µM (active) | 0.029 µM (active) | 2.81 µM (inactive) | 0.324 µM (active) | 0.345 µM (active) | 
Oc1cc(O)c2c(c1)OC(c1ccc(O)c(O)c1)C(O)C2c1c(O)cc(O)c2c1OC(c1ccc(O)c(O)c1)C(O)C2 (stereo unspecified) | > 100 µM (inactive) | > 100 µM (inactive) |  | > 100 µM (inactive) | > 100 µM (inactive) | > 100 µM (inactive) | > 100 µM (inactive) |  | > 100 µM (inactive) | > 100 µM (inactive) | > 100 µM (inactive) | > 100 µM (inactive) | > 100 µM (inactive) |  | 25.4 µM (inactive) | 85.1 µM (inactive) | > 100 µM (inactive) | > 100 µM (inactive) | > 100 µM (inactive) | > 100 µM (inactive)
COc1cc2cc(c1Cl)N(C)C(=O)C[C@H](OC(=O)[C@H](C)N(C)C(C)=O)[C@]1(C)O[C@H]1[C@H](C)[C@@H]1C[C@@](O)(NC(=O)O1)[C@H](OC)/C=C/C=C(/C)C2 | 0.0944 µM (active) | 0.0135 µM (active) | 0.0156 µM (active) | 0.0143 µM (active) | 0.334 µM (active) | 0.0327 µM (active) | 0.0174 µM (active) | 0.0176 µM (active) | 0.0164 µM (active) | 0.0219 µM (active) | 0.0239 µM (active) | 0.0131 µM (active) | 0.0133 µM (active) | 0.0175 µM (active) | 0.0531 µM (active) | 0.0157 µM (active) | 0.0236 µM (active) | 0.015 µM (active) | 0.018 µM (active) | 
COc1ccc(N(C(=O)OC(C)(C)C)[C@@H]2C(C)=C[C@H]([S@@+]([O-])c3ccc(C)cc3)[C@@H]3C(=O)N(C)C(=O)[C@@H]32)cc1 | 15.1 µM (inactive) | 16.6 µM (inactive) |  | 18.6 µM (inactive) | 13.6 µM (inactive) | 18.7 µM (inactive) | 4.94 µM (inactive) | 30 µM (inactive) | 21.5 µM (inactive) | 15.5 µM (inactive) | 10.7 µM (inactive) | 18.3 µM (inactive) | 14.3 µM (inactive) |  | 25.3 µM (inactive) | 25.2 µM (inactive) | 15.3 µM (inactive) | 18.4 µM (inactive) | 15.2 µM (inactive) | 17.4 µM (inactive)
CN(C)c1ccc(/C=C(\NC(=O)c2ccccc2)C(=O)Nc2ccccc2C(=O)NCc2ccccc2)cc1 | > 100 µM (inactive) | 41.9 µM (inactive) |  | > 100 µM (inactive) | > 100 µM (inactive) | > 100 µM (inactive) | 0.0955 µM (active) | > 100 µM (inactive) | > 100 µM (inactive) | > 100 µM (inactive) | > 100 µM (inactive) | > 100 µM (inactive) | 67.5 µM (inactive) | > 100 µM (inactive) | > 100 µM (inactive) | > 100 µM (inactive) | > 100 µM (inactive) | 66.5 µM (inactive) | > 100 µM (inactive) | > 100 µM (inactive)
CN(C)C=C1C(=O)c2c(Br)sc(Br)c2C1=O | 29.6 µM (inactive) | 16.3 µM (inactive) |  | 21.8 µM (inactive) | 20.8 µM (inactive) | 15.3 µM (inactive) | 17 µM (inactive) | 22.1 µM (inactive) | 28.8 µM (inactive) | 15.6 µM (inactive) | 18.7 µM (inactive) | 19.7 µM (inactive) | 29.8 µM (inactive) | 13 µM (inactive) | 18.1 µM (inactive) | 20.6 µM (inactive) | 17.5 µM (inactive) | 18.2 µM (inactive) | 33.7 µM (inactive) | 
COP(=O)(OC)C(Nc1ccc(Cc2ccc(NC(c3ccco3)P(=O)(OC)OC)cc2)cc1)c1ccco1 (stereo unspecified) | 79.1 µM (inactive) | > 100 µM (inactive) |  | 35.9 µM (inactive) | 17.3 µM (inactive) | > 100 µM (inactive) | 3.33 µM (inactive) | > 100 µM (inactive) | > 100 µM (inactive) | 11.4 µM (inactive) | 31.4 µM (inactive) | > 100 µM (inactive) |  |  | 26.3 µM (inactive) | > 100 µM (inactive) | 5.83 µM (inactive) | 4.79 µM (inactive) | > 100 µM (inactive) | 15.9 µM (inactive)
CC(=O)/N=C1\NC(=O)/C(=C/c2ccc(Cl)cc2Cl)N1C | > 100 µM (inactive) | 35.7 µM (inactive) |  | 30.8 µM (inactive) | 87.7 µM (inactive) |  | 58.1 µM (inactive) |  | 52 µM (inactive) | 23.1 µM (inactive) | 32.6 µM (inactive) | > 100 µM (inactive) |  | > 100 µM (inactive) | > 100 µM (inactive) | 35.2 µM (inactive) | 75 µM (inactive) | 77.4 µM (inactive) | > 100 µM (inactive) | 74.6 µM (inactive)
Oc1c(CN2CCOCC2)ccc2cccnc12 | 8.38 µM (inactive) | > 10 µM (inactive) |  | 6.55 µM (inactive) | 1.51 µM (inactive) | > 10 µM (inactive) | > 10 µM (inactive) | 4.4 µM (inactive) | > 10 µM (inactive) | > 10 µM (inactive) | > 10 µM (inactive) | > 10 µM (inactive) | > 10 µM (inactive) | > 10 µM (inactive) | 5.16 µM (inactive) | 4.63 µM (inactive) | > 10 µM (inactive) | > 10 µM (inactive) | 4.14 µM (inactive) | > 10 µM (inactive)
COc1cccc(C2SCC(=O)N2c2ccc(-n3c(-c4ccccc4)nc4ccccc4c3=O)cc2)c1OC (stereo unspecified) | > 43.7 µM (inactive) | > 100 µM (inactive) | > 100 µM (inactive) | > 100 µM (inactive) | > 100 µM (inactive) | > 100 µM (inactive) | > 60.5 µM (inactive) | > 100 µM (inactive) | > 100 µM (inactive) | > 100 µM (inactive) | > 100 µM (inactive) | > 100 µM (inactive) | > 100 µM (inactive) | > 100 µM (inactive) | > 100 µM (inactive) | > 100 µM (inactive) | > 100 µM (inactive) | > 100 µM (inactive) |  | > 100 µM (inactive)
Cc1cc(S(=O)(=O)Nc2nc(N)n[nH]2)c(Cl)cc1Cl |  | > 10 µM (inactive) |  | > 10 µM (inactive) | > 10 µM (inactive) | > 10 µM (inactive) | > 10 µM (inactive) | > 10 µM (inactive) | > 10 µM (inactive) | > 10 µM (inactive) | > 10 µM (inactive) | > 10 µM (inactive) | > 10 µM (inactive) | > 10 µM (inactive) | > 10 µM (inactive) | > 10 µM (inactive) | > 10 µM (inactive) | > 10 µM (inactive) |  | > 10 µM (inactive)
CCc1nc2cc(F)ccc2[nH]c1=O | > 100 µM (inactive) | > 100 µM (inactive) |  | > 100 µM (inactive) | > 100 µM (inactive) | > 100 µM (inactive) | 82.8 µM (inactive) | > 100 µM (inactive) | > 100 µM (inactive) | 10.4 µM (inactive) |  | > 100 µM (inactive) | > 100 µM (inactive) | > 100 µM (inactive) | > 100 µM (inactive) | > 100 µM (inactive) | 27.9 µM (inactive) | > 100 µM (inactive) | > 100 µM (inactive) | > 100 µM (inactive)
NC(=O)C1N=NSC1NC(=O)c1ccc([N+](=O)[O-])cc1 (stereo unspecified) | 40.6 µM (inactive) | 22 µM (inactive) |  | 47.5 µM (inactive) | 48.2 µM (inactive) | > 100 µM (inactive) | 67.3 µM (inactive) | 62.7 µM (inactive) | 36.9 µM (inactive) | 75 µM (inactive) | 22.4 µM (inactive) | 67.3 µM (inactive) | 26.4 µM (inactive) | 37.6 µM (inactive) | 63.5 µM (inactive) | 34.4 µM (inactive) | 43.5 µM (inactive) |  | 43.5 µM (inactive) | 52.2 µM (inactive)
CCC(Cc1cnc2nc(N)nc(N)c2n1)c1ccc(C(=O)NC(CCC(=O)O)C(=O)O)cc1 (stereo unspecified) | 0.000382 µM (active) | 0.00539 µM (active) | 0.01 µM (active) | < 0.0001 µM (active) | > 100 µM (inactive) |  | 0.329 µM (active) | < 0.0001 µM (active) | 0.000327 µM (active) | 10.7 µM (inactive) |  | 0.000575 µM (active) |  |  | 0.01 µM (active) | 0.000315 µM (active) |  | 0.01 µM (active) | 0.0628 µM (active) | 
Brc1ccc(-c2ccc(-c3ccc(Br)s3)s2)s1 | > 100 µM (inactive) | > 100 µM (inactive) | > 100 µM (inactive) | > 100 µM (inactive) | > 100 µM (inactive) | > 100 µM (inactive) | > 100 µM (inactive) | > 100 µM (inactive) | > 100 µM (inactive) | > 100 µM (inactive) | > 100 µM (inactive) | > 100 µM (inactive) | > 100 µM (inactive) | > 100 µM (inactive) |  | > 100 µM (inactive) | > 100 µM (inactive) | > 100 µM (inactive) | > 100 µM (inactive) | 
